Source: patent publication US6737383B1, “Herbicidal oxadiazolidines” (priority 1999, dated 2004)

Assays:
blackgrass = assay: Test B pre/postemergence blackgrass; type: in vivo, Alopecurus myosuroides
Summary of the method: (§1)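 Test chemicals in a non-phytotoxic solvent mixture with surfactant were sprayed preemergence onto planted seeds and postemergence onto plants 2 to 18 cm tall (1- to 4-leaf stage). After twelve to sixteen days in a greenhouse, injury was visually rated against untreated controls from 0 (no effect) to 10 (complete control).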

wild oat = assay: Test B pre/postemergence wild oat; type: in vivo, Avena fatua
Summary of the method: as §1

sugar beet = assay: Test B pre/postemergence sugar beet; type: in vivo, Beta vulgaris
Summary of the method: as §1

wheat = assay: Test B pre/postemergence wheat; type: in vivo, Triticum aestivum
Summary of the method: as §1

surinam grass = assay: Test B pre/postemergence surinam grass; type: in vivo, Brachiaria decumbens
Summary of the method: as §1

rape = assay: Test B pre/postemergence rape; type: in vivo, Brassica napus
Summary of the method: as §1

pigweed = assay: Test B pre/postemergence pigweed; type: in vivo, Amaranthus retroflexus
Summary of the method: as §1

purple nutsedge = assay: Test B pre/postemergence purple nutsedge; type: in vivo, Cyperus rotundus; conditions: Postemergence
Summary of the method: as §1

velvetleaf = assay: Test B pre/postemergence velvetleaf; type: in vivo, Abutilon theophrasti
Summary of the method: as §1

cocklebur = assay: Test B pre/postemergence cocklebur; type: in vivo, Xanthium strumarium
Summary of the method: as §1

soybean = assay: Test B pre/postemergence soybean; type: in vivo, Glycine max
Summary of the method: as §1

corn = assay: Test B pre/postemergence corn; type: in vivo, Zea mays
Summary of the method: as §1

bamyardgrass = assay: Test B flood test barnyardgrass; type: in vivo, Echinochloa crus-galli
Summary of the method: (§2)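 Read-out is a visual response score from 0 (no effect) to 10 (complete control), assigned by comparison with untreated controls. Treatment was applied at the 2-leaf stage, and plants stayed in the greenhouse for twelve to sixteen days before scoring.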

crabgrass = assay: Test B pre/postemergence crabgrass; type: in vivo, Digitaria sanguinalis
Summary of the method: as §1

bedstraw = assay: Test B pre/postemergence bedstraw; type: in vivo, Galium aparine
Summary of the method: as §1

smallflower flatsedge = assay: Test B flood test smallflower flatsedge; type: in vivo, Cyperus difformis
Summary of the method: as §2

[1] = Postemergence, Rate 250 g/ha, scale 0 to 10, 0 no effect, 10 complete control
[2] = Postemergence, Rate 1000 g/ha, scale 0 to 10 (0 no effect, 10 complete control)
[3] = Preemergence, Rate 125 g/ha, scale 0 to 10 (0 no effect, 10 complete control)
[4] = Preemergence, Rate 250 g/ha, scale of 0 to 10 where 0 is no effect and 10 is complete control
[5] = Preemergence, Rate 500 g/ha, scale 0 (no effect) to 10 (complete control)
[6] = Rate 125 g/ha, Postemergence, scale 0 to 10, 0 no effect, 10 complete control
[7] = Rate 500 g/ha, Postemergence, 0 to 10 scale (0 no effect, 10 complete control)
[8] = Rate 1000 g/ha, Preemergence, scale 0 to 10 (0 no effect, 10 complete control)
[9] = Rate 125 g/ha, Postemergence section (flood test species), scale 0 to 10, 0 no effect, 10 complete control
[10] = flood test, listed under Postemergence, Rate 250 g/ha, scale 0 to 10, 0 no effect, 10 complete control

CCN(CC)C(=O)n1oc(=O)n(-c2ccc(OC)cc2)c1=O [Compound 1]
5: Sugarbeets plant response rating (sugar beet; [2]) | Corn plant response rating (corn; [5]) | Crabgrass plant response rating (crabgrass; [1])
0: Blackgrass plant response rating (blackgrass; [1]) | Plant response rating, Blackgrass (blackgrass; [3]) | Plant response rating, Blackgrass (blackgrass; [4]) | Blackgrass plant response rating (blackgrass; [6]) | Wild oats plant response rating (wild oat; [1]) | Wild oats plant response rating (wild oat; [2]) | Plant response rating, Wild oats (wild oat; [3]) | Plant response rating, Wild oats (wild oat; [4]) | Wild oats plant response rating (wild oat; [5]) | Wild oats plant response rating (wild oat; [6]) | Sugarbeets plant response rating (sugar beet; [1]) | Plant response rating, Sugarbeets (sugar beet; [3]) | Plant response rating, Sugarbeets (sugar beet; [4]) | Sugarbeets plant response rating (sugar beet; [5]) | Sugarbeets plant response rating (sugar beet; [6]) | Plant response rating, Sugarbeets (sugar beet; [8]) | Wheat plant response rating (wheat; [1]) | Wheat plant response rating (wheat; [2]) | Plant response rating, Wheat (wheat; [3]) | Plant response rating, Wheat (wheat; [4]) | Wheat plant response rating (wheat; [5]) | Wheat plant response rating (wheat; [6]) | Plant response rating, Wheat (wheat; [8]) | Plant response rating, B. signalgrass (surinam grass; [3]) | Plant response rating, B. signalgrass (surinam grass; [4]) | B. signalgrass plant response rating (surinam grass; [6]) | Rape plant response rating (rape; [1]) | Plant response rating, Rape (rape; [3]) | Plant response rating, Rape (rape; [4]) | Rape plant response rating (rape; [5]) | Rape plant response rating (rape; [6]) | Plant response rating, Rape (rape; [8]) | Plant response rating, Redroot pigweed (pigweed; [3]) | Plant response rating, Redroot pigweed (pigweed; [4]) | Nutsedge plant response rating (purple nutsedge; Rate 250 g/ha, scale 0 to 10, 0 no effect, 10 complete control) | Nutsedge plant response rating (purple nutsedge; Rate 1000 g/ha, scale 0 to 10 (0 no effect, 10 complete control)) | Nutsedge plant response rating (purple nutsedge; Rate 125 g/ha, scale 0 to 10, 0 no effect, 10 complete control) | Nutsedge plant response rating (purple nutsedge; Rate 500 g/ha, 0 to 10 scale (0 no effect, 10 complete control)) | Velvetleaf plant response rating (velvetleaf; [1]) | Velvetleaf plant response rating (velvetleaf; [2]) | Plant response rating, Velvetleaf (velvetleaf; [3]) | Plant response rating, Velvetleaf (velvetleaf; [4]) | Velvetleaf plant response rating (velvetleaf; [5]) | Velvetleaf plant response rating (velvetleaf; [6]) | Cocklebur plant response rating (cocklebur; [1]) | Cocklebur plant response rating (cocklebur; [2]) | Plant response rating, Cocklebur (cocklebur; [3]) | Plant response rating, Cocklebur (cocklebur; [4]) | Cocklebur plant response rating (cocklebur; [5]) | Cocklebur plant response rating (cocklebur; [6]) | Cocklebur plant response rating (cocklebur; [7]) | Soybean plant response rating (soybean; [1]) | Plant response rating, Soybean (soybean; [3]) | Plant response rating, Soybean (soybean; [4]) | Soybean plant response rating (soybean; [5]) | Soybean plant response rating (soybean; [6]) | Plant response rating, Soybean (soybean; [8]) | Corn plant response rating (corn; [1]) | Corn plant response rating (corn; [2]) | Plant response rating, Corn (corn; [3]) | Plant response rating, Corn (corn; [4]) | Corn plant response rating (corn; [6]) | Corn plant response rating (corn; [7]) | Barnyardgrass plant response rating (bamyardgrass; [2]) | Barnyardgrass plant response rating (bamyardgrass; [9]) | Barnyardgrass plant response rating (bamyardgrass; Rate 500 g/ha, Postemergence section of Table B, 0 to 10 scale (0 no effect, 10 complete control)) | Barnyardgrass plant response rating (bamyardgrass; [10]) | Crabgrass plant response rating (crabgrass; [6]) | Bedstraw plant response rating (bedstraw; [1]) | Bedstraw plant response rating (bedstraw; [2]) | Plant response rating, Bedstraw (bedstraw; [3]) | Plant response rating, Bedstraw (bedstraw; [4]) | Bedstraw plant response rating (bedstraw; [5]) | Bedstraw plant response rating (bedstraw; [6]) | Bedstraw plant response rating (bedstraw; [7]) | Plant response rating, Bedstraw (bedstraw; [8]) | S. Flatsedge plant response rating (smallflower flatsedge; [2]) | S. Flatsedge plant response rating (smallflower flatsedge; [9]) | S. Flatsedge plant response rating (smallflower flatsedge; [10])
2: Blackgrass plant response rating (blackgrass; [5]) | Blackgrass plant response rating (blackgrass; [7]) | Plant response rating, Wild oats (wild oat; [8]) | Rape plant response rating (rape; [7]) | Redroot pigweed plant response rating (pigweed; [5]) | Redroot pigweed plant response rating (pigweed; [6]) | Plant response rating, Redroot pigweed (pigweed; [8]) | Soybean plant response rating (soybean; [2])
6: B. signalgrass plant response rating (surinam grass; [2]) | B. signalgrass plant response rating (surinam grass; [5])
3: Plant response rating, Velvetleaf (velvetleaf; [8])
7: B. signalgrass plant response rating (surinam grass; [1]) | B. signalgrass plant response rating (surinam grass; [7]) | Plant response rating, Corn (corn; [8])
8: Blackgrass plant response rating (blackgrass; [2]) | Plant response rating, B. signalgrass (surinam grass; [8]) | Redroot pigweed plant response rating (pigweed; [7]) | Plant response rating, Crabgrass (crabgrass; [4]) | Crabgrass plant response rating (crabgrass; [5]) | Crabgrass plant response rating (crabgrass; [7])
4: Plant response rating, Blackgrass (blackgrass; [8]) | Rape plant response rating (rape; [2]) | Redroot pigweed plant response rating (pigweed; [1]) | Plant response rating, Crabgrass (crabgrass; [3])
9: Redroot pigweed plant response rating (pigweed; [2]) | Crabgrass plant response rating (crabgrass; [2]) | Plant response rating, Crabgrass (crabgrass; [8])
